{
  "source": "paper PMC9781087",
  "about": "“Discovery of New Microbial Collagenase Inhibitors” (Life, 2022)",
  "key": {"[1]": {"test_system": "mice", "set-up": "method as in PMID 34684834", "details": "acute toxicity; cited from earlier work"}, "[2]": {"target": "collagenase A (ColA) (Clostridium perfringens, UniProt P43153)", "sequence (P43153 87-1104 limits assumed)": "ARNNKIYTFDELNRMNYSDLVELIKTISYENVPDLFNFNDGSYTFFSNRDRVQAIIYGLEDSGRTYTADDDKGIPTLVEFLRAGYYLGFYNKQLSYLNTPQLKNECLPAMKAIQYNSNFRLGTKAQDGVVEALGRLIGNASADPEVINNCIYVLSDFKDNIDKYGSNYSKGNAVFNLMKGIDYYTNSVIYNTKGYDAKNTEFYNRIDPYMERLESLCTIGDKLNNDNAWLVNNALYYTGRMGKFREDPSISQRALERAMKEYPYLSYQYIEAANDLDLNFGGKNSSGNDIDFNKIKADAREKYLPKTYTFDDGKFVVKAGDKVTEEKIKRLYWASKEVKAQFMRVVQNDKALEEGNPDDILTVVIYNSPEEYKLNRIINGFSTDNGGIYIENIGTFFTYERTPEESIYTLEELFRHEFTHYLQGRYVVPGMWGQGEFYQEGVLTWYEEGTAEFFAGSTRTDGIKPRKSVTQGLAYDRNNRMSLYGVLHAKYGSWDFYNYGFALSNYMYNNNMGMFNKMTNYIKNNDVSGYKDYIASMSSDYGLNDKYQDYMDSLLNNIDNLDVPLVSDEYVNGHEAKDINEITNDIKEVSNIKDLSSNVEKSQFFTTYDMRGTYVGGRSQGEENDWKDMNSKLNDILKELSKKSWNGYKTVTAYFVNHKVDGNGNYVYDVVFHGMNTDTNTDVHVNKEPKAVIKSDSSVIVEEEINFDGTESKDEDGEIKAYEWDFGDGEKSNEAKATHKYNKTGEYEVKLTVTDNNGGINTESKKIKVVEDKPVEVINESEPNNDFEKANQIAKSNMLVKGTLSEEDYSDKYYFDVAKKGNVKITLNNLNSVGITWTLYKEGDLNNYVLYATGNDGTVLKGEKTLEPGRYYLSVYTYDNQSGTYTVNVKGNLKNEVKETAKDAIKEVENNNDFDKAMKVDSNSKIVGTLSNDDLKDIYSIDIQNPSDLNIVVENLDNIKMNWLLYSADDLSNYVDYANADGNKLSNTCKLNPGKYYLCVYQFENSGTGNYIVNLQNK", "assay": "biochemical", "set-up": "species or system C. perfringens", "details": "for Inhibition (%) on ColA: after 30 min of incubation"}, "[3]": {"test_system": "neuraminidase protein of Clostridium perfringens", "details": "cited from earlier work"}, "[4]": {"test_system": "Staphylococcus aureus, Enterococcus faecalis, and Staphylococcus epidermidis", "set-up": "method as in PMID 31486108", "details": "cited from earlier work"}, "[5]": {"target": "collagenase from Clostridium histolyticum", "set-up": "method as in PMID 16276971", "details": "cited from earlier work"}, "[6]": {"assay": "Solubility", "details": "in words"}, "[7]": {"test_system": "rats intratendineously injected with collagenase", "set-up": "method as in PMID 28165813", "details": "intragastrical administration, 100 mg/kg; cited from earlier work"}, "[8]": {"details": "read-out: Inhibition (%) on ColA"}, "[9]": {"details": "read-out: Inhibition(%) on ColA"}, "[10]": {"details": "100 µM, preliminary screening (Table S1), * = compound precipitated due to low solubility"}},
  "note": "Like-named read-outs stand apart in the source and are kept apart here.",
  "data": [
    {"compound": "COc1cc2c(cc1OC)-c1cc3ccc(OC)c(OC)c3c[n+]1CC2", "note": "[Palmatine chloride, palmatine chloride]", "values": [
      {"measurement": "lethal dose 50", "setting": "[1]", "result": 1533.68, "unit": "mg/kg"},
      {"measurement": "Inhibition (%) on ColA", "setting": "[2]; 50 µM, mean ± SD of three replications", "result": "Almost complete inhibition"},
      {"measurement": "inhibition at 1 µM", "setting": "[2]; [8]", "result": "15.5 ± 3.9", "unit": "%"},
      {"measurement": "inhibition at 5 µM", "setting": "[2]; [8]", "result": "35.4 ± 1.8", "unit": "%"},
      {"measurement": "inhibition at 10 µM", "setting": "[2]; [8]", "result": "84.9 ± 1.5", "unit": "%"},
      {"measurement": "inhibition at 50 µM", "setting": "[2]; [8]", "result": "97.9 ± 1.6", "unit": "%"},
      {"measurement": "inhibition at 100 µM", "setting": "[2]; [8]", "result": "98.7 ± 0.4", "unit": "%"},
      {"measurement": "inhibition at 100 µM", "setting": "[2]; [9]", "result": 103, "unit": "%"},
      {"measurement": "neuraminidase inhibition (in words)", "setting": "[3]", "result": "potent effect"}
    ]},
    {"compound": "O=C1C=CC(=O)c2c(O)cccc21", "note": "[Juglone, juglone]", "values": [
      {"measurement": "impact on the bacterial growth", "setting": "[4]", "result": "low impact on the bacterial growth"},
      {"measurement": "inhibitory effect on ColA (in words)", "setting": "[2]", "result": "potent inhibitors of ColA"},
      {"measurement": "Inhibition (%) on ColA", "setting": "[2]; 100 µM, mean ± SD of three replications (five-dose assay)", "result": "Almost complete inhibition"},
      {"measurement": "inhibition at 1 µM", "setting": "[2]; [8]", "result": "13.8 ± 1.5", "unit": "%"},
      {"measurement": "inhibition at 5 µM", "setting": "[2]; [8]", "result": "50.6 ± 0.5", "unit": "%"},
      {"measurement": "inhibition at 10 µM", "setting": "[2]; [8]", "result": "69.2 ± 0.4", "unit": "%"},
      {"measurement": "inhibition at 50 µM", "setting": "[2]; [8]", "result": "80.8 ± 0.7", "unit": "%"}
    ]},
    {"compound": "O=c1c(O)c(-c2ccc(O)c(O)c2)oc2cc(O)cc(O)c12", "note": "[quercetin]", "values": [
      {"measurement": "IC50", "setting": "[5]", "result": 286, "unit": "µM"}
    ]},
    {"compound": "O=C1c2ccc(O)cc2OC(c2cc(O)c(O)c(O)c2)C1O", "note": "(stereo not shown) [Dihydrorobinetin, dihydrorobinetin]", "values": [
      {"measurement": "Inhibition (%) on ColA", "setting": "[2]; 10 µM, mean ± SD of three replications", "result": "Almost complete inhibition"},
      {"measurement": "inhibition at 1 µM", "setting": "[2]; [8]", "result": "-16.5 ± 1.6", "unit": "%"},
      {"measurement": "inhibition at 5 µM", "setting": "[2]; [8]", "result": "-29.7 ± 0.5", "unit": "%"},
      {"measurement": "inhibition at 10 µM", "setting": "[2]; [8]", "result": "105.1 ± 0.5", "unit": "%"},
      {"measurement": "inhibition at 100 µM", "setting": "[2]; [9]", "result": 96.9, "unit": "%"},
      {"measurement": "solubility", "setting": "[6]", "result": "poor solubility in water"}
    ]},
    {"compound": "S-(acetamidomethyl)-L-cysteine", "values": [
      {"measurement": "Inhibition (%) on ColA", "setting": "[2]; [10]", "result": -15.2, "unit": "%"}
    ]},
    {"compound": "O=C1c2ccccc2C(=O)c2c(O)ccc(O)c21", "note": "[1,4-dihydroxyanthraquinone]", "values": [
      {"measurement": "inhibition at 100 µM", "setting": "[2]; [9]", "result": 3.2, "unit": "%"}
    ]},
    {"compound": "CC(=O)c1ccc(S(=O)(=O)NC(=O)NC2CCCCC2)cc1", "note": "[acetohexamide, reference compound]", "values": [
      {"measurement": "inhibition at 100 µM", "setting": "[2]; [9]", "result": 16.6, "unit": "%"}
    ]},
    {"compound": "O=C(O)/C=C/c1ccc(O)c(O)c1", "note": "[caffeic acid]", "values": [
      {"measurement": "inhibitory effect on ColA (in words)", "setting": "[2]", "result": "low effects"},
      {"measurement": "inhibition at 100 µM", "setting": "[2]; [9]", "result": -3.8, "unit": "%"}
    ]},
    {"compound": "O=C(O)C1=C[C@@H](O)[C@@H](O)[C@H](O)C1", "note": "[shikimic acid]", "values": [
      {"measurement": "inhibition at 100 µM", "setting": "[2]; [9]", "result": -0.2, "unit": "%"}
    ]},
    {"compound": "CC(O)(P(=O)(O)O)P(=O)(O)O", "note": "[etidronic acid, reference compound]", "values": [
      {"measurement": "inhibition at 100 µM", "setting": "[2]; [9]", "result": 23, "unit": "%"}
    ]},
    {"compound": "CC1CNc2c(cccc2S(=O)(=O)N[C@@H](CCCNC(=N)N)C(=O)N2CC[C@@H](C)C[C@@H]2C(=O)O)C1", "note": "(stereo partly shown) [argatroban, reference compound]", "values": [
      {"measurement": "inhibition at 100 µM", "setting": "[2]; [9]", "result": -12.3, "unit": "%"}
    ]},
    {"compound": "O=C(/C=C/C=C/c1ccc2c(c1)OCO2)N1CCCCC1", "note": "[Piperine, piperine]", "values": [
      {"measurement": "morphological structure of rats' tendons", "setting": "[7]", "result": "improvement of the morphological structure"},
      {"measurement": "IC50 (in words)", "setting": "[2]", "result": "nanomolar range"},
      {"measurement": "inhibitory effect on ColA (in words)", "setting": "[2]", "result": "potent inhibitory effects on ColA, even at small concentration"},
      {"measurement": "inhibition at 1 µM", "setting": "[2]; [8]", "result": "84.5 ± 0.4", "unit": "%"},
      {"measurement": "inhibition at 5 µM", "setting": "[2]; [8]", "result": "82.4 ± 0.4", "unit": "%"},
      {"measurement": "inhibition at 10 µM", "setting": "[2]; [8]", "result": "72.5 ± 2.7", "unit": "%"},
      {"measurement": "inhibition at 100 µM", "setting": "[2]; [9]", "result": 81.1, "unit": "%"},
      {"measurement": "solubility", "setting": "[6]", "result": "low solubility"}
    ]},
    {"compound": "C[C@@]12C(=O)OC(=O)[C@]1(C)[C@H]1CC[C@@H]2O1", "note": "[cantharidin]", "values": [
      {"measurement": "inhibition at 100 µM", "setting": "[2]; [9]", "result": 26.8, "unit": "%"}
    ]},
    {"compound": "c1ccc2c3c([nH]c2c1)CNCC3", "note": "[tetrahydronorharman]", "values": [
      {"measurement": "Inhibition (%) on ColA", "setting": "[2]; [10]", "result": 21.3, "unit": "%"}
    ]},
    {"compound": "COc1ccc2cc3[n+](cc2c1OC)CCc1cc2c(cc1-3)OCO2", "note": "[berberine]", "values": [
      {"measurement": "inhibition at 100 µM", "setting": "[2]; [9]", "result": -2.5, "unit": "%"}
    ]},
    {"compound": "C[C@H](N)C(=O)O", "note": "[L-alanine]", "values": [
      {"measurement": "inhibition at 100 µM", "setting": "[2]; [9]", "result": 3.1, "unit": "%"}
    ]},
    {"compound": "O=C(O)C1NCCc2c1[nH]c1ccccc21", "note": "(stereo not drawn) [1,2,3,4-tetrahydro-beta-carboline-1-carboxylic acid]", "values": [
      {"measurement": "inhibition at 100 µM", "setting": "[2]; [9]", "result": 1.5, "unit": "%"}
    ]},
    {"compound": "COc1cc(/C=C/C(=O)CC(=O)/C=C/c2ccc(O)c(OC)c2)ccc1O", "note": "[Curcumin, curcumin]", "values": [
      {"measurement": "inhibitory effect on ColA (in words)", "setting": "[2]", "result": "very potent ColA inhibitor"},
      {"measurement": "Inhibition (%) on ColA", "setting": "[2]; 5 µM, mean ± SD of three replications", "result": "Almost complete inhibition"},
      {"measurement": "inhibition at 1 µM", "setting": "[2]; [8]", "result": "-10 ± 3.9", "unit": "%"},
      {"measurement": "inhibition at 5 µM", "setting": "[2]; [8]", "result": "101.8 ± 0.6", "unit": "%"},
      {"measurement": "inhibition at 10 µM", "setting": "[2]; [8]", "result": "102.5 ± 0.8", "unit": "%"},
      {"measurement": "inhibition at 50 µM", "setting": "[2]; [8]", "result": "101.5 ± 0.4", "unit": "%"},
      {"measurement": "inhibition at 100 µM", "setting": "[2]; [8]", "result": "101.8 ± 0.7", "unit": "%"},
      {"measurement": "inhibition at 100 µM", "setting": "[2]; [9]", "result": 102, "unit": "%"}
    ]}
  ]
}
